Measured values published in patent publication US9522920B2, “Bromodomain inhibitors and uses thereof” (Constellation Pharmaceuticals, Inc., priority 2010, dated 2016).
Like-named read-outs stand apart in the source and are kept apart here. Values belong to the molecule of their own block, whether it stands above or below them.

Legend:
[1] = system: MYC mRNA; assay: cMyc RNA quantification assay (QuantiGene) in Raji cells; format: cell-based; conditions: Table 7, Raji (Burkitt's lymphoma) cells, 4 h
Procedure: (§1) MV4:11 (AML) or Raji (Burkitt's lymphoma) cells were seeded in a 96-well plate and incubated in the presence of various concentrations of compounds for 4 h. Relative mRNA levels were quantitated by using QuantiGene 2.0 assay (Affymetrix) according to the manufacturer's recommendation. Signals were detected by using an Envision plate reader (Perkin-Elmer). Biological duplicates were averaged and normalized to vehicle (DMSO) control to calculate percent MYC mRNA levels.

[2] = system: IL-6 secretion; assay: Cell-based IL-6 quantification assay (ELISA, Mesoscale) in LPS-stimulated THP-1 cells; conditions: THP-1 cells, 16 h, read-out: IL6
How it was run: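 THP-1 cells stimulated with LPS at 4 μg/mL final and exposed to compounds for 16 h. Supernatant IL-6 measured by Mesoscale ELISA and normalized to CellTiter-Glo cell content. Percent inhibition derived from that ratio.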

[3] = biological target: T1, BRD4(BD1) (Homo sapiens, UniProt O60885); assay: BRD4 AlphaLisa binding assay (Alphascreen)
T1 construct: His; made in house
How it was run: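 BRD4(BD1) (30 nM) incubated 20 min at room temperature with peptide (200 nM) and compound in 40 mM HEPES pH 7.0, 40 mM NaCl, 1 mM DTT, 0.01% BSA, 0.008% Brij-35, 1.2% DMSO.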

[4] = system: MYC mRNA; assay: cMyc RNA quantification assay (QuantiGene) in MV4:11 cells; format: cell-based; conditions: read-out: MYC-MV411
Procedure: as §1

[5] = Table 7, LPS 4 μg/mL, normalised to CellTiter-Glo
[6] = Table 6, BRD4(BD1) 30 nM, H4-tetraacetyl peptide 200 nM, read-out: BRD4 Alphascreen IC50
[7] = Table 7, MV4:11 (AML) cells, 4 h
[8] = Homo sapiens, THP-1, 16 h, Table 14, LPS
[9] = Table 14, BRD4 AlphaLisa Binding Assay, read-out: Alpha screen
[10] = Homo sapiens, MV4-11, 4 h, Table 14, MV4:11 cells

SMILES: Cc1cccc2c1C(c1ccc(C#N)cc1)=N[C@@H](CC(N)=O)c1onc(C)c1-2 [Compound 130]
- IC50 [1]: < 500 nM
- IC50 [2, 5]: < 500 nM
- IC50 [3, 6]: < 500 nM
- IC50 [4, 7]: < 500 nM

SMILES: Cc1cccc2c1C(c1ccc(OC(F)(F)F)cc1)=N[C@@H](CC(N)=O)c1onc(C)c1-2 [Compound 136]
- IC50 [1]: < 500 nM
- IC50 [2, 5]: < 500 nM
- IC50 [3, 6]: < 500 nM
- IC50 [4, 7]: < 500 nM

SMILES: Cc1noc2c1-c1nc(Cl)ccc1C(c1ccc(Cl)cc1)=NC2 [Compound 227, 2-Chloro-5-(4-chlorophenyl)-10-methyl-7H-isoxazolo[5,4-c]pyrido[2,3-e]azepine]
- IC50 [2, 8]: > 1000 nM
- IC50 [3, 9]: > 1000 nM
- IC50 [4, 10]: > 1000 nM

SMILES: Cc1noc2c1-c1nc(N)ccc1C(c1ccc(Cl)cc1)=NC2 [Compound 228, 5-(4-Chlorophenyl)-10-methyl-7H-isoxazolo[5,4-c]pyrido[2,3-e]azepin-2-amine]
- IC50 [2, 8]: > 1000 nM
- IC50 [3, 9]: > 1000 nM
- IC50 [4, 10]: > 1000 nM

SMILES: Cc1noc2c1-c1ccnc(Oc3ccccc3)c1C(c1ccc(Cl)cc1)=NC2 [Compound 229, 6-(4-Chlorophenyl)-1-methyl-7-phenoxy-4H-isoxazolo[5,4-c]pyrido[4,3-e]azepine]
- IC50 [2, 8]: > 1000 nM
- IC50 [3, 9]: > 1000 nM
- IC50 [4, 10]: > 1000 nM

SMILES: Cc1noc2c1-c1ccc(-c3ccc(N)nc3)cc1C(c1ccc(F)cc1)=N[C@H]2C [Compound 231]
- IC50 [2, 8]: < 500 nM
- IC50 [3, 9]: < 500 nM
- IC50 [4, 10]: < 500 nM

SMILES: Cc1noc2c1-c1ccc(-c3ccc(C(=O)O)cc3)cc1C(c1ccc(F)cc1)=N[C@H]2CC(N)=O [Compound 234]
- IC50 [2, 8]: 500 to 1000 nM
- IC50 [3, 9]: < 500 nM
- IC50 [4, 10]: 500 to 1000 nM

Now from value to molecule, other results behind:

- IC50 [1]: < 500 nM
- IC50 [3, 6]: < 500 nM
- IC50 [4, 7]: < 500 nM
SMILES: Cc1noc2c1-c1cccc(Cl)c1C(c1ccc(Cl)cc1)=N[C@H]2CC(N)=O [Compound 139]
- IC50 [2, 5]: < 500 nM

- IC50 [1]: < 500 nM
- IC50 [3, 6]: < 500 nM
- IC50 [4, 7]: < 500 nM
SMILES: COCCNC(=O)C[C@@H]1N=C(c2ccc(Cl)cc2)c2ccccc2-c2c(C)noc21 [Compound 145]
- IC50 [2, 5]: < 500 nM

- IC50 ([1]; Homo sapiens): 500 to 1000 nM
- IC50 ([4]; Homo sapiens, MV4-11, 4 h, Table 7, MV4:11 (AML) cells): 500 to 1000 nM
SMILES: Cc1noc2c1-c1ccnc(F)c1C(c1ccc(Cl)cc1)=N[C@H]2CC(N)=O [Compound 180, 2-((4S)-6-(4-Chlorophenyl)-7-fluoro-1-methyl-4H-isoxazolo[5,4-c]pyrido[4,3-e]azepin-4-yl)acetamide]
- IC50 ([2]; Homo sapiens, THP-1, 16 h, Table 7, LPS 4 μg/mL, normalised to CellTiter-Glo): < 500 nM

- IC50 [2, 8]: < 500 nM
- IC50 [3, 9]: < 500 nM
- IC50 [4, 10]: < 500 nM
SMILES: Cc1noc2c1-c1ccnc(N)c1C(c1ccc(Cl)cc1)=N[C@H]2CC(N)=O [Compound 222, 2-((4S)-7-Amino-6-(4-chlorophenyl)-1-methyl-4H-isoxazolo[5,4-c]pyrido[4,3-e]azepin-4-yl)acetamide]

- IC50 [2, 8]: > 1000 nM
- IC50 [3, 9]: > 1000 nM
- IC50 [4, 10]: > 1000 nM
SMILES: Cc1noc2c1-c1ccccc1C(c1ccc(Cl)cc1)=N[C@H]2CC(C)(C)O [Compound 223, 1-((4S)-6-(4-chlorophenyl)-1-methyl-4H-benzo[c]isoxazolo[4,5-e]azepin-4-yl)-2-methylpropan-2-ol]

- IC50 [2, 8]: < 500 nM
- IC50 [3, 9]: < 500 nM
- IC50 [4, 10]: < 500 nM
SMILES: Cc1noc2c1-c1ccc(C#N)cc1C(c1ccc(Cl)cc1)=N[C@H]2CC(N)=O [Compound 224]

- IC50 [2, 8]: < 500 nM
- IC50 [3, 9]: < 500 nM
- IC50 [4, 10]: < 500 nM
SMILES: CCOC(=O)NC1N=C(c2ccc(Cl)cc2)c2ccccc2-c2c(C)noc21 (stereo not shown) [Compound 225, ethyl (6-(4-chlorophenyl)-1-methyl-4H-benzo[c]isoxazolo[4,5-e]azepin-4-yl)carbamate]

- IC50 [2, 8]: < 500 nM
- IC50 [3, 9]: < 500 nM
- IC50 [4, 10]: < 500 nM
SMILES: Cc1noc2c1-c1ccccc1C(c1ccc(C3(O)CC3)cc1)=N[C@H]2CC(N)=O [Compound 226]

- IC50 [2, 8]: < 500 nM
- IC50 [3, 9]: < 500 nM
- IC50 [4, 10]: 500 to 1000 nM
SMILES: Cc1noc2c1-c1ccc(Cl)cc1C(c1ccc(F)cc1)=N[C@H]2C [Compound 230]

- IC50 [2, 8]: 500 to 1000 nM
- IC50 [3, 9]: < 500 nM
- IC50 [4, 10]: 500 to 1000 nM
SMILES: Cc1noc2c1-c1ccccc1C(c1ccc(C(C)(C)N)cc1)=N[C@H]2CC(N)=O [Compound 233]
